Results reported in patent US7014856B1, “Ganglioside-KLH conjugate vaccines plus OS-21” (Sloan-Kettering Institute for Cancer Research, priority 1993, dated 2006).
Values joined by “and” are separate entries in the source; they are usually repeats but may differ in a detail not shown here. Equal entries are not always repeated. “Also recorded” adds a separate entry of the source.

Columns and labels:
KLH [1] = assay: IgG ELISA titer against KLH (fourth series); type: in vivo, human; conditions: No adjuvant
Experimental: (§1) Enzyme-linked Immunosorbent Assay (ELISA) were performed as previously described for gangliosides (5). […] The titer was defined as the highest dilution yielding a corrected absorbance of 0.1 or greater. Immunostaining of gangliosides with monoclonal antibodies or human sera was performed after spotting on nitrocellulose strips as previously described (22). […] Twenty-five micrograms of each were diluted in 0.05 ml PBS and administered intradermally. Results were interpreted as described previously (5).

KLH [2] = assay: ELISA for KLH antibodies (third series); type: in vivo, human
GM2 [3] = assay: Dot blot immune stain against GM2 (fourth series); type: in vivo, human; design: key: Reactions were graded 0, 1+, 2+ or 3+; Reactions were graded 0, 1+, 2+ or 3+; Reactions were graded 0, 1+, 2+ or 3+; Reactions were graded 0, 1+, 2+ or 3+
Experimental: as §1

GM2 [4] = assay: ELISA for GM2 antibodies in patients receiving GM2-KLH conjugate vaccines (third series); type: in vivo, human
Experimental: Four vaccinations were administered intradermally into extremities with intact lymphatic drainage at two-week intervals, followed by two additional vaccinations at eight week intervals. Cyclophosphamide (Cytoxan, Mead Johnson and Co., Evansville, Ind.) 200 mg/m2 was administered intravenously to all patients 4 to 6 days prior to the first vaccination.
(§2) ELISA was performed as previously described (6). To control for nonspecific “stickiness”, immune sera were also tested on plates which were processed identically but to which no ganglioside had been added, and the reading was subtracted from the value obtained in the presence of ganglioside. The titer was defined as the highest dilution yielding a corrected absorbance of 0.1 or greater. Immunostaining of gangliosides with monoclonal antibodies or human sera was performed after spotting on nitrocellulose strips (14) or separation on HPTLC silica gel glass plates as previously described (3). Plates were developed in chloroform/methanol/water (0.25% CaCl2) 50:40:10 (v/v), and gangliosides were visualized by staining with resorcinol/HCl reagent or monoclonal antibodies.

patients = assay: Toxicity in patients treated earlier with GM2 or GM2-KLH vaccines; type: in vivo, human
GM2 [5] = assay: ELISA titer against GM2 (fourth series); type: in vivo, human
Experimental: as §1

GM2 [6] = assay: Dot blot immune stain for GM2 antibodies (third series); type: in vivo, human
Experimental: as §2

ganglioside GM2 = assay: Peak antibody titer against ganglioside GM2 by ELISA (Table 2); type: in vivo, human; conditions: peak titer against GM2 after immunization
melanoma patients [7] = conditions: six patients per group
melanoma patients [8] = assay: Delayed-type hypersensitivity skin tests with GM2, GM2-HSA and KLH; type: in vivo, human; conditions: 25 micrograms intradermally at the fifth vaccination; 24 and 48 hours
Experimental: as §1

T antigen-KLH = assay: Preclinical adjuvant studies with KLH-conjugate vaccines such as T antigen-KLH; type: in vivo, mice
QS-21 = assay: ELISA for antibodies to QS-21; type: in vivo, human; conditions: after immunizations
Experimental: as §1

[9] = system: mouse, cat and Rhesus monkey; conditions: doses as high as 125 ug per mouse; cited from earlier work
melanoma patients [10] = conditions: outpatient setting, s.c. with GM2-KLH
Experimental: Melanoma patients with AJCC Stage III or IV disease were considered eligible if all evidence of metastatic disease had been rejected within the last 8 months. None of the patients had received prior chemotherapy or radiation therapy. Patients were evaluated for toxicity at the time of each vaccination. In addition, patients were instructed to measure local reactions and to take their temperature.
The GM2/KLH solar ratio was approximately 800/1 and was supplied at a concentration of 0.57 mg conjugate per 0.5 ml normal saline. This represented one patient dose and contained 70 ug GM2, 500 ug KLH and 0.5 ml normal saline. QS-21 adjuvant, containing a saponin component isolated from Quillaja saponaria Molina tree bark, was provided by Cambridge Biotech Corp. (Worcester, Mass.). The purity of the QS-21 was determined to be ≧98% by analytical reverse phase HPLC. […] The vaccine (final volume 0.75 ml) was vortexed for 2–3 minutes and administered within 15 min. Four vaccinations were administered subcutaneously at two week intervals followed by two more at eight week intervals. Initially 12 patients were treated, 3 at each of the 4 QS-21 doses. […] Cyclophosphamide (Cytoxan, Mead Johnson and Co., Evansville, Id.) 200 mg/M^2 was administered IV to all patients 3–6 days prior to the first vaccination.

11^3NeuAc-GgOse3Cer-keyhole limpet hemocyanin (KLH) [GM2-KLH]
IgG ELISA TITER AGAINST KLH Pretreatment (KLH [1]): 0 (6)
median titers: reciprocal KLH antibody titer after immunization (Peak) IgG (KLH [2]): 120
median IgM dot blot reaction against GM2 (GM2 [3]; GM2-KLH alone): 2+
PEAK DOT BLOT IMMUNE SYSTEM RESPONSE AGAINST GM2 IgG (GM2 [3]; No adjuvant): 0 and 1+
PEAK DOT BLOT IMMUNE SYSTEM RESPONSE AGAINST GM2 IgM (GM2 [3]; No adjuvant): 2+ and 1+, and 0 and 3+,
median IgG dot blot reaction against GM2 (GM2 [3]; no QS-21): 0
Reciprocal GM2 antibody titers before immunization IgG (GM2 [4]; before immunization): 0
median titers: reciprocal GM2 antibody titer after immunization (Peak) IgG (GM2 [4]; median, after immunization): 0
median titers: reciprocal GM2 antibody titer after immunization (Peak) IgM (GM2 [4]; median, after immunization): 80
median titers: reciprocal GM2 antibody titer before immunization IgG (GM2 [4]; median, before immunization): 0
median titers: reciprocal GM2 antibody titer before immunization IgM (GM2 [4]; median, before immunization): 0
toxicity attributed to the substance (patients): pain and tenderness at vaccines sites lasting 48 hours
Reciprocal median IgM antibody titer against GM2 (GM2 [5]; GM2-KLH alone): 80
median IgG antibody titer against GM2 (GM2 [5]; GM2-KLH alone): 0
patients who produced IgM antibody (GM2 [5]; GM2-KLH alone): Five of 6
patients who produced IgG antibody (of low titer) (GM2 [5]; GM2-KLH alone, 6 patients): 1
PEAK ELISA TITER AGAINST GM2 Pretreatment IgG (GM2 [5]; No adjuvant): 0 (6)
induction of IgM and IgG antibody titers, 7 μg GM2 dose versus 70 μg dose (GM2 [5]; patients with advanced disease, 100 μg QS-21): equally as effective
patients with 3+ reactivity of IgM antibodies against GM2 (GM2 [6]): two of six
Antibody Titers by Elisa IgG (ganglioside GM2): 0
local or systemic side effects (melanoma patients [7]): No local or systemic toxicity

II^3NeuAc-GgOse3Cer [GM2, reference compound]
reaction at skin test sites (melanoma patients [8]): No erythema or induration
toxicity attributed to the substance (patients): No toxicity

QS-21
DTH (T antigen-KLH; mice): potent DTH
IgG antibody titers (T antigen-KLH; most mice, KLH-conjugate vaccine with QS-21): over 1/4000
antibodies against QS-21 (QS-21): No antibodies against QS-21 were detected; also recorded: no significant increase in antibody to QS-21
toxicity [9]: no clear toxicity
probable MTD per vaccination (melanoma patients [10]): 200 µg
